According to PMC10098121, “Amphipathic barbiturates as marine product mimics with cytolytic and immunogenic effects on head and neck squamous cell carcinoma cell lines” (Frontiers in Pharmacology, 2023):

Experiments:
[1] = tested on: human red blood cells; experiment: Hemolysis assay; assay type: cell-based; conditions: for EC50: Homo sapiens, Erythrocyte, 1 h, 37°C, highest concentration tested 500 μM, average of three experiments, read-out: EC50 hemolytic activity against human red blood cells
Description: The hemolytic effect of the MPMs was determined using a hemolysis assay as previously described ([Paulsen et al., 2021]). Briefly, hemolysis was determined using a heparinized fraction (10 IU/mL) of freshly drawn blood. The blood collected in ethylenediaminetetraacetic acid-containing test tubes (Vacutest, KIMA, Arzergrande, Italy) was used for the determination of the hematocrit (hct). The heparinized blood was washed 3 × with pre-warmed phosphate-buffered saline (PBS) and adjusted to a final hct of 4%. MPMs in DMSO (50 mM) were added to a 96-well polypropylene V-bottom plate (NUNC, Fisher Scientific, Oslo, Norway) and serially diluted. The test concentration range was 4–500 μM with DMSO contents ≤1%. A solution of 1% triton X-100 was used as a positive control for 100% hemolysis. As a negative control, a solution of 1% DMSO in PBS was included. Red blood cells (1% v/v final concentration) were added to the well plate and incubated at 37°C and 800 rpm for 1 h. After centrifugation (5 min, 3000 g), 100 μL from each well was transferred to a 96-well flat-bottomed microtiter plate, and absorbance was measured at 545 nm with a microplate reader (VersaMaxTM, Molecular Devices, Sunnyvale, CA, United States). The percentage of hemolysis was calculated as the ratio of the absorbance in the MPM treated and surfactant-treated samples, corrected for the PBS background. Three independent experiments were performed, and EC50 values are presented as averages.

[2] = tested on: Staphylococcus aureus ATCC 9144; experiment: Bacterial minimum inhibitory concentration (broth microdilution); assay type: cell-based; conditions: ATCC9144; Staphylococcus aureus ATCC 9144, 48 h, 35 °C, di-TFA salts
Description: (§1) Method for determination of bacterial minimum inhibitory concentration (MIC) Stock solutions of the water-soluble compounds were prepared by dissolving them in ultrapure water (Milli-Q H2O, Millipore, MA, USA). The less water-soluble compounds were first dissolved in 25 - 50 µL 100% DMSO before further dilution with ultrapure water. The DMSO concentration was always less than 1% in the working concentration of each compound. A modified broth microdilution susceptibility test based on the CLSI M07-A9 protocol, [2] was used to determine minimal inhibitory concentrations (MIC). Briefly, the test compounds were two-fold diluted with ultrapure water in polystyrene 96-well flat-bottom microplates (NUNC, Roskilde, Denmark). The bacterial inoculum was diluted to 2.5 - 3 x 10^4 cells/mL in Mueller-Hinton broth (MHB, Difco Laboratories, USA) and added to the different diluted compounds in a ratio of 1:1. Positive control (ciprofloxacin, Sigma-Aldrich, USA), negative control (bacteria + water), and media control (media + water) were included in each experiment. The microplates were incubated for 48 h at 35 °C in an EnVision microplate reader (PerkinElmer, Waltham, MA, USA). The lowest concentration of compounds that caused no bacterial growth, as determined by optical density (OD600) measurements, was defined as the MIC value. All compounds were tested in 3 technical replicates.
(§2) Supplementary Video S1. HSC-3 cells were seeded at 100% confluence and a standard scratch wound migration assay was performed. The cells were imaged every 2 hours for 24 hours. The video

[3] = tested on: Escherichia coli ATCC 25922; experiment: as above; assay type: cell-based; conditions: ATCC25922; Escherichia coli ATCC 25922, 48 h, 35 °C, di-TFA salts
Description: as §1, §2

[4] = tested on: Bacillus subtilis 168; experiment: as above; assay type: cell-based; conditions: Bacillus subtilis 168, 48 h, 35 °C, di-TFA salts
Description: as §1, §2

[5] = tested on: Pseudomonas aeruginosa ATCC 27853; experiment: as above; assay type: cell-based; conditions: ATCC27853; Pseudomonas aeruginosa ATCC 27853, 48 h, 35 °C, di-TFA salts
Description: as §1, §2

[6] = tested on: seven HNSCC cell lines and one normal oral fibroblast cell line (NOF); experiment: High throughput drug screening, statements on the whole panel; assay type: cell-based, human; conditions: 72 h, DSS
Description: The MPMs were screened against a panel of […] different cell lines (HSC-3, UT-SCC-8, UT-SCC-24A, UT-SCC-24B, UT-SCC-42A, UT-SCC-42B and NOF) at the High Throughput Biomedicine Unit (HTB) at the Institute for Molecular Medicine Finland (FIMM). On day 1, black-walled 384-well plates were coated with 5 µl diluted myogel (0.5 mg/ml) per well using an automated reagent dispenser (MultiFlo FX, BioTek, Winooski, VT, United States). On day 2, 500 cells per well were seeded in 20 µl of complete media using the MultiFlo FX (BioTek), and the cells were left to adhere overnight. On day 3, the MPMs, cisplatin, DMSO and Benzethonium chloride were added to the cells using an automatic liquid handler (Echo 550, Labcyte Inc., San Jose, CA, United States). Cisplatin and the MPMs were added to yield five different concentrations in a ten-fold dilution series ranging from 10 to 100,000 nM. Each concentration was tested in triplicate wells. DMSO (0.1%) and benzethonium chloride (100 µM) served as negative and positive control, respectively. Three hours later, some of the plates were irradiated with 2 Gy in a gamma irradiator (OB29/4, STS, Braunschweig, Germany). All plates were taken to the irradiation room to ensure similar handling of the plates. 72 h later, the plates were cooled to room temperature before 25 µl of CellTiter-Glo 2.0 reagent (Promega, Madison, WI, USA) was added to each well using the MultiFlo FX (BioTek). Next, the plates were centrifuged for 5 min at 1,000 rpm before the luminescence signal was measured with the PHERAstar FS HT reader (BMG LABTECH GmbH, Ortenberg, Germany). The raw data was analyzed with the Breeze software (https://breeze.fmm.fi), which normalized the luminescence signal from treated cells against the signal from negative and positive control cells to calculate the percentage of inhibition and generate dose-response curves, which were then used to calculate drug sensitivity scores (DSS). The DSS is a parameter which combines the IC50, the slope of the dose-response curve, and the minimum and maximum responses into a single metric, as previously described ([Yadav et al., 2014]). Quality control was performed by calculation of the Z′-factor, which was >0.7 for all cell lines, indicating high quality of the assay ([Zhang et al., 1999]).

Structure (SMILES) | EC50 [1] [µM] | MIC [2] [µg/mL] | MIC [3] [µg/mL] | MIC [4] [µg/mL] | MIC [5] [µg/mL] | potency / effect on viability over the cell line panel (in words) [6] | hemolytic activity against red blood cells (in words) ([1]; test range 4–500 μM)
CN(C)CCCCN1C(=O)N(CCCCN(C)C)C(=O)C(CCCc2ccccc2)(CCCc2ccccc2)C1=O [MPM-4:2] | > 500 | 64 | 32 | 16 | > 64 | had the highest DSS | –
CN(C)CCCN1C(=O)N(CCCN(C)C)C(=O)C(CCCc2ccccc2)(CCCc2ccccc2)C1=O [MPM-3:2] | > 500 | > 64 | 32 | 16 | > 64 | had the highest DSS | –
NCCCCCCN1C(=O)N(CCCCCCN)C(=O)C(CCCc2ccccc2)(CCCc2ccccc2)C1=O [MPM-6:0] | 92 | 4 | 8 | 2 | 8 | had the highest DSS | the most hemolytic compound
NCCN1C(=O)N(CCN)C(=O)C(CCCc2ccccc2)(CCCc2ccccc2)C1=O [MPM-2:0] | 379 | 8 | 16 | 8 | 16 | had the highest DSS | –
